Measured values published in patent publication US7410755B2, “ADP detection using an enzyme-coupled reaction” (Discoverx, priority 2005, dated 2008).

Molecular target: Protein Kinase A (PKA) (Homo sapiens, UniProt P17612)
Settings: read-out: Km of ATP for PKA; Kemptide substrate, PKA (Upstate), 30° C. for 1 hour; fitted to Michaelis-Menten equation; FIG. 4
Source text: In this second example, kinase reaction, the activity of PKA is characterized further. In this experiment, the kinetics of ATP on PKA activity was examined by measuring the rate of kinase activity at varying concentration of ATP. The results of this assay were fitted to the Michaelis-Menten equation so that the Km (Michaelis-Menten constant) of ATP for PKA could be determined.
To perform a protein kinase assay using the ADP Detection Assay, the assay reagents were thawed at room temperature for several hours.
Low salt assay buffer (LS ASB) was used to dilute all reagents in the kinase reaction and consisted of 15 mM Hepes, 20 mM NaCl, 1 mM EGTA, 0.02% Tween 20, 10 mM MgCl2, 0.1% bovine gamma globulin at pH 7.4. Substrate reagent was generated containing 800 μM Kemptide substrate. […] PKA kinase (Upstate) was diluted to give a reagent of 20 ng/ml. […]
To detect the generation of ADP as a result of kinase activity, 10 μ ADP Substrate Reagent was added followed immediately by 20 μl of ADP Enzyme Reagent. […] Assay signal was measured with a Fluorocount® fluorescent plate reader (Packard) using 0.1 second integration with excitation and emission wavelengths at 530 and 590 nm respectively and a PMT voltage of 750 Volts.
The data was converted by dividing the signal measured by 60 to obtain the enzyme rate in RFU per minute. […]

Km: 22.3 µM
Compound: Nc1ncnc2c1ncn2[C@@H]1O[C@H](COP(=O)(O)OP(=O)(O)OP(=O)(O)O)[C@@H](O)[C@H]1O [ATP]
